From ChEMBL document CHEMBL6115010, “Targeting glioma with heteroaromatic alkaloids: A review of potential therapeutics” (Bioorg Med Chem, 2025)
≈ marks a conversion by molar mass, not a printed value.

Key:
U-87 MG [1] = test: Antiproliferative activity against human U-87 MG cells assessed as reduction in cell viability at 100 uM incubated for 72 hrs by Prestoblue-reagent based assay relative to control; format: functional, U-87MG ATCC
H4 = test: Antiproliferative activity against human H4 cells assessed as reduction in cell viability incubated for 72 hrs by Prestoblue-reagent based assay; format: functional; conditions: H4, 72 h
SF-268 [2] = test: Antiproliferative activity against human SF-268 cells; format: functional, cell-based
SF-295 = test: Cytotoxicity against human SF-295 cells assessed as reduction in cell growth incubated for 96 hrs by MTT assay; format: functional, cell-based; conditions: SF-295, 96 h
SF-268 [3] = test: Cytotoxicity against human SF-268 cells assessed as reduction in cell viability incubated for 72 hrs by SRB assay; format: functional, cell-based; conditions: SF-268, 72 h
[4] = Cytotoxicity against human SHG-44 cells assessed as reduction in cell viability incubated for 48 hrs by MTT assay; format: functional, cell-based; conditions: SHG-44, 48 h
CCF-STTG1 [5] = test: Cytotoxicity against human CCF-STTG1 cells assessed as reduction in cell viability incubated for 48 hrs by MTT assay; format: functional, cell-based; conditions: CCF-STTG1, 48 h
[6] = Cytotoxicity against human CHG-5 cells assessed as reduction in cell viability incubated for 48 hrs by MTT assay; format: functional, cell-based; conditions: CHG-5, 48 h
U-251 [7] = test: Cytotoxicity against human U-251MG cells assessed as reduction in cell viability incubated for 48 hrs by MTT assay; format: functional, cell-based; conditions: U-251, 48 h
SH-SY5Y [8] = test: Cytotoxicity against human SH-SY5Y cells; format: functional, cell-based
CCF-STTG1 [9] = test: Cytotoxicity against human CCF-STTG1 cells assessed as reduction in cell growth incubated for 24 hrs by MTT assay; format: functional, cell-based; conditions: CCF-STTG1, 24 h
[10] = Cytotoxicity against human GSC-3 cells assessed as reduction in cell viability incubated for 72 hrs by MTS assay; format: functional, cell-based; conditions: GSC-3, 72 h
U-251 [11] = test: Cytotoxicity against human U-251MG cells assessed as reduction in cell growth incubated for 48 hrs by MTT assay; format: functional, cell-based; conditions: U-251, 48 h
[12] = Cytotoxicity against human SHG-44 cells assessed as reduction in cell growth incubated for 48 hrs by MTT assay; format: functional, cell-based; conditions: SHG-44, 48 h
[13] = Cytotoxicity against human GL15 cells assessed as reduction in cell growth incubated for 48 hrs by MTT assay; format: functional, cell-based; conditions: GL15, 48 h
SH-SY5Y [14] = test: Cytotoxicity against human SH-SY5Y cells assessed as reduction in cell growth incubated for 48 hrs by MTT assay; format: functional, cell-based
[15] = Cytotoxicity against human CHG-5 cells assessed as reduction in cell growth incubated for 48 hrs by MTT assay; format: functional, cell-based; conditions: CHG-5, 48 h
[16] = Cytotoxicity against human U-343MG cells assessed as reduction in cell growth incubated for 48 hrs by MTT assay; format: functional, cell-based
[17] = Growth inhibition of human U373 MG cells measured after 72 hrs by MTT assay; format: functional, U-373MG ATCC
Hs68 = test: Growth inhibition of human Hs68 cells measured after 72 hrs by MTT assay; format: functional
U-87 MG [18] = test: Growth inhibition of human U-87 MG cells measured after 72 hrs by MTT assay; format: functional, U-87MG ATCC
[19] = Cytotoxicity against human SHG-44 cells assessed as reduction in cell growth incubated for 24 hrs by MTT assay; format: functional, cell-based; conditions: SHG-44, 24 h
[20] = Cytotoxicity against human CHG-5 cells assessed as reduction in cell growth incubated for 24 hrs by MTT assay; format: functional, cell-based; conditions: CHG-5, 24 h
[21] = Cytotoxicity against rat ASK cells assessed as reduction in cell growth by SRB assay; format: functional; conditions: read-out: ED50 (the source's name)

## CC1=NCCc2c1[nH]c1ccccc21
U-87 MG [1]
  inhibition at 100 µM: 30%
H4
  IC50: 33.5 µM

## C[C@@H]1CC[C@H]2C(C)(C)[C@H](O)CC[C@]2(C)[C@@]12Cc1c(O)cc3c(c1O2)C(=O)NC3=O
SF-268 [2]
  IC50: 43.3 µM

## C[C@@H]1CC[C@H]2C(C)(C)[C@H](O)CC[C@]2(C)[C@@]12Cc1c(O)cc3c(c1O2)CNC3=O
SF-268 [2]
  IC50: 67.2 µM

## C[C@@H]1CC[C@H]2C(C)(C)[C@H](O)CC[C@]2(C)[C@@]12Cc1c(O)cc3c(c1O2)C(=O)NC3
SF-268 [2]
  IC50: 11.2 µM

## COc1cc2c(cc1OC)[C@H](O)[C@@H]1c3c(cc4c(c3-2)OCO4)CCN1C
SF-295
  IC50: 1.41 µg/mL (≈ 3.97 µM)

## C/C=C(\C)[C@H](O)[C@H](C)/C=C(C)/C=C(\C)C/C(C)=C/Cc1nc(OC)c(OC)c(O)c1C
SF-268 [3]
  IC50: 30.2 µM

## COC(=O)N1CCc2cc(O)c(OC)c3c4c(cc1c23)C(=O)C=C(OC)C4=O
[4]
  IC50: 10.8 µM
CCF-STTG1 [5]
  IC50: 9.2 µM
[6]
  IC50: 10.8 µM
U-251 [7]
  IC50: 11.3 µM

## Oc1cc2c3c(c1O)c1cc4c(cc1c[n+]3CC2)OCO4
[4]
  IC50: 9.4 µM
CCF-STTG1 [5]
  IC50: 10.3 µM
[6]
  IC50: 10.2 µM
U-251 [7]
  IC50: 11.8 µM

## Cc1cc2[nH]c(=O)c(=O)n(CC(O)C(O)C(O)CO)c2cc1C (stereo unspecified)
SH-SY5Y [8]
  IC50: 71.2 µM

## COc1cc2c(cc1O)C(=O)O[C@H]1[C@@H]2[C@H]2C(=C[C@@H]1O)CC[N+]2(C)[O-] (stereo partly specified)
CCF-STTG1 [9]
  IC50: 83.2 µM

## COc1cc2c(c(Oc3ccc(C=O)cc3)c1OC)C[C@H]1c3c(c(OC)c(OC)c(OC)c3-2)CCN1C
[10]
  IC50: 14.5 µg/mL (≈ 28.7 µM)

## COc1cc2c(c(Oc3ccc(C=O)cc3)c1OC)-c1c(OC)c(OC)c(OC)c3ccnc(c13)C2=O
[10]
  IC50: 16.3 µg/mL (≈ 32.5 µM)

## COc1cc2c(cc1O)C(=O)O[C@@H]1CC=C3CC[N+](C)([O-])[C@H]3[C@H]21 (stereo partly specified)
CCF-STTG1 [9]
  IC50: 93 µM

## O[C@H]1[C@H]2c3cc4c(cc3C=[N+]3CCC(=C[C@@H]1O)[C@H]23)OCO4
[4]
  IC50: 9.4 µM
CCF-STTG1 [5]
  IC50: 10.3 µM
[6]
  IC50: 10.2 µM
U-251 [7]
  IC50: 11.8 µM

## CC(=O)O[C@H]1c2cc3c(cc2[C@]24C=C[C@H](O)C[C@H]2N1C[C@H]4O)OCO3
[4]
  IC50: 28.3 µM
CCF-STTG1 [5]
  IC50: 29.4 µM
[6]
  IC50: 29.4 µM
U-251 [7]
  IC50: 15.8 µM

## COc1cc2c(c(Oc3ccc(C=O)cc3)c1OC)C[C@H]1c3c(cc(OC)c(OC)c3-2)CCN1C
[10]
  IC50: 19.2 µg/mL (≈ 40.5 µM)

## N#Cc1cnc2ccccc2c1O
SH-SY5Y [8]
  IC50: 66.8 µM

## CC(C)=CC[C@]12C/C=C(/C)Oc3cccc(CO)c3/C(N)=C(/C(=O)C=C1C)C2=O
SF-268 [2]
  IC50: 17.9 µM

## CO[C@@H]1C=C[C@@]23c4cc5c(cc4CN(CCc4ccc(O)cc4)[C@@H]2CN(C)[C@H]3C1)OCO5
U-251 [11]
  IC50: 46.6 µM
[12]
  IC50: 43.7 µM
[13]
  IC50: 39.8 µM
SH-SY5Y [14]
  IC50: 53.7 µM
[15]
  IC50: 41.8 µM
[16]
  IC50: 43.2 µM

## CC/C=C(\C)[C@H](O)[C@H](C)/C=C(C)/C=C(\C)C/C(C)=C/Cc1nc(OC)c(OC)c(O)c1C
SF-268 [3]
  IC50: 45.9 µM

## COc1cc2c(c(Oc3ccc(CO)cc3)c1OC)C[C@H]1c3c(cc(OC)c(OC)c3-2)CCN1C
[10]
  IC50: 15.2 µg/mL (≈ 31.9 µM)

## CO[C@@H]1C=C[C@@]23c4cc5c(cc4C(C)O[C@H]2CN(C)[C@H]3C1)OCO5 (stereo partly specified)
[17]
  GI50: 1000 nM
Hs68
  GI50: 51 µM
U-87 MG [18]
  GI50: 28 µM

## CC(=O)O[C@H]1C=C[C@]23c4cc5c(cc4[C@H](OC(C)=O)N(C[C@H]2O)[C@@H]3C1)OCO5
[4]
  IC50: 27.1 µM
CCF-STTG1 [5]
  IC50: 27.1 µM
[6]
  IC50: 30.1 µM
U-251 [7]
  IC50: 17.4 µM

## C/C=C(\C)[C@H](O)[C@H](C)/C=C(C)/C=C(\C)C/C(C)=C/Cc1nc(OC)c(OC)c(OC)c1C
SF-268 [3]
  IC50: 10 µM

## COc1cc2c(cc1OC)[C@H](O)[C@@H]1c3c(cc4c(c3-2)OCO4)CC[N@@+]1(C)[O-]
SF-295
  IC50: 1.62 µg/mL (≈ 4.36 µM)

## COc1cc2c(cc1O)[C@H](OC(C)=O)N1C[C@@H](O)[C@]23C=C[C@H](OC)C[C@@H]13
[4]
  IC50: 27.1 µM
CCF-STTG1 [5]
  IC50: 29.4 µM
[6]
  IC50: 29.4 µM
U-251 [7]
  IC50: 17.4 µM

## N#Cc1cnc2cccc(O)c2c1O
SH-SY5Y [8]
  IC50: 62.6 µM

## COc1cc2c(c(Oc3ccc(C=O)cc3)c1OC)-c1c(OC)c(OC)cc3ccnc(c13)C2=O
[10]
  IC50: 15.5 µg/mL (≈ 32.8 µM)

## CN1C(=O)C(=O)NC[C@@H]1CNc1ccc(C(=O)O)cc1
SH-SY5Y [8]
  IC50: 54.3 µM

## CN[C@H]1C[C@H](OC)C=C[C@@]12C(=O)N(CCCC(=O)O)Cc1cc3c(cc12)OCO3
U-251 [11]
  IC50: 11.3 µM
[12]
  IC50: 10.8 µM
[13]
  IC50: 11.4 µM
SH-SY5Y [14]
  IC50: 13.7 µM
[15]
  IC50: 12.2 µM
[16]
  IC50: 12.2 µM

## COc1ccc2c3c([nH]c2c1)[C@@H](C)NCC3
U-87 MG [1]
  inhibition at 100 µM: 38%

## COc1ccc2c(c1OC)-c1c(OC)c(O)cc3c1[C@H](C2)[N@+](C)([O-])CC3
[19]
  IC50: 83.7 µM
CCF-STTG1 [9]
  IC50: 81.8 µM
[20]
  IC50: 83.7 µM

## CO[C@H]1C=C[C@]23c4cc5c(cc4[C@H](OC(C)=O)N(C[C@H]2O)[C@@H]3C1)OCO5
[4]
  IC50: 28.3 µM
CCF-STTG1 [5]
  IC50: 27.1 µM
[6]
  IC50: 30 µM
U-251 [7]
  IC50: 15.8 µM

## CO[C@@H]1C=C[C@@]23c4cc5c(cc4CN(CCc4ccccc4)[C@@H]2CN(C)[C@H]3C1)OCO5
U-251 [11]
  IC50: 18.4 µM
[12]
  IC50: 15.4 µM
[13]
  IC50: 18.9 µM
SH-SY5Y [14]
  IC50: 15.8 µM
[15]
  IC50: 17.7 µM
[16]
  IC50: 14.6 µM

## [O-][N+]12CCc3cc(O)c(O)c(c31)-c1cc3c(cc1C2)OCO3 (single isomer, unassigned; (+))
U-251 [7]
  IC50: 93.7 µM

## COc1cc2c(cc1OC)-c1c3c(cc4ccnc(c14)C2=O)OCO3 [DICENTRINONE]
[21]
  EC50: 10.2 µg/mL (≈ 30.4 µM)

## COc1ccc2c3c([nH]c2c1)C(C)=NCC3 [HARMALINE]
U-87 MG [1]
  inhibition at 100 µM: 14%
H4
  IC50: 19.6 µM

## CC1=NCCc2c1[nH]c1cc(O)ccc21 [HARMALOL]
U-87 MG [1]
  inhibition at 100 µM: 37%
H4
  IC50: 23.7 µM

## Cc1cc2nc3[nH]c(=O)[nH]c(=O)c3nc2cc1C [LUMICHROME]
SH-SY5Y [8]
  IC50: 75.2 µM

## c1ccc2c(c1)[nH]c1cnccc12 [NORHARMANE]
H4
  IC50: 49 µM

## COc1cc(OC)c2c(c1)C(=O)c1nccc3cc4c(c-2c13)OCO4 [OXODISCOGUATTINE]
[21]
  EC50: 2.11 µg/mL (≈ 6.29 µM)

## C/C=C(\C)[C@H](O)[C@H](C)/C=C(C)/C=C/C/C(C)=C/Cc1nc(OC)c(OC)c(O)c1C [PIERICIDIN A]
SF-268 [3]
  IC50: 68.1 µM

## COc1c(OC)c(OC)c2c3c(cc4ccccc42)NC(=O)c13 [PIPEROLACTAM C]
[21]
  EC50: 12.8 µg/mL (≈ 41.3 µM)
